In patent US20250230193A1, “CYCLIC COMPOUND HAVING SELECTIVE KRAS INHIBITORY EFFECT ON HRAS AND NRAS” (CHUGAI SEIYAKU KABUSHIKI KAISHA, priority 2022, published 2025):
Where a SMILES comes first, the peptide text is derived from it. Bridges are numbered along the chain shown (N, C = ends). [ ]: non-standard residue; d: D form. The star is where a group is joined. hPhe(3-Cl-4-CF3) = N[C@@H](CCc1ccc(C(F)(F)F)c(Cl)c1)C(=O)O; NPrPhe(4-CF3) = CCCN[C@@H](Cc1ccc(C(F)(F)F)cc1)C(=O)O; NEtPhe(4-CF3) = CCN[C@@H](Cc1ccc(C(F)(F)F)cc1)C(=O)O; NMeGly(cPent) = CN[C@H](C(=O)O)C1CCCC1; Pro(4,4-F2) = O=C(O)[C@@H]1CC(F)(F)CN1; NMeD = CN[C@@H](CC(=O)O)C(=O)O; NMeL = CN[C@@H](CC(C)C)C(=O)O; Morpholide = C1CN(*)CCO1; Ac5c = NC1(C(=O)O)CCCC1; Sar = CNCC(=O)O

Assays:
[1] = target: GDP-bound HRAS wild-type protein (Homo sapiens, UniProt P01112); test: Binding to HRAS by surface plasmon resonance (SPR), Single Cycle Kinetics; conditions: for HRAS/KRAS (ratio of KD value with respect to HRAS to KD value with respect to KRAS): GDP-bound HRAS wild-type vs GDP-bound KRAS wild-type
[2] = target: GDP-bound NRAS wild-type protein (Homo sapiens, UniProt P01111); test: Binding to NRAS by surface plasmon resonance (SPR), Single Cycle Kinetics; conditions: for NRAS/KRAS (ratio of KD value with respect to NRAS to KD value with respect to KRAS): GDP-bound NRAS wild-type vs GDP-bound KRAS wild-type
Chain of GDP-bound NRAS wild-type protein (P01111 whole entry): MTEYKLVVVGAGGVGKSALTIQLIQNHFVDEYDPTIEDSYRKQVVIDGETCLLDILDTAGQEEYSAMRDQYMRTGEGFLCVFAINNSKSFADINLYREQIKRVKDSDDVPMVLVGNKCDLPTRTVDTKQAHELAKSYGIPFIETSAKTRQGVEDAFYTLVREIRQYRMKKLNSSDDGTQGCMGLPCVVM

Chain of GDP-bound HRAS wild-type protein (P01112 whole entry): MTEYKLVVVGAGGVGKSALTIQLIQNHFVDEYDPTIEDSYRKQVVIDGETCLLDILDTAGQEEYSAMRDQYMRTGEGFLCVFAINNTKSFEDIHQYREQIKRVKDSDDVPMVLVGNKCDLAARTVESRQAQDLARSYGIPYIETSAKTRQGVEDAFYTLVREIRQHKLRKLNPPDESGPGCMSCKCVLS

CCC[C@H]1C(=O)N[C@@H](CC(C)C)C(=O)N(C2CC2)CC(=O)N(C)[C@H]2C/C=C\CCN(C2=O)[C@@H](Cc2ccc(C)cc2)C(=O)N(C)CC(=O)N[C@@H](CCc2cc(F)c(C(F)(F)F)c(F)c2)C(=O)N2C[C@H](OCC)C[C@H]2C(=O)NC2(CCC2)C(=O)N(C)[C@@H](C2CCCC2)C(=O)N(C)[C@H](C(=O)N(C)C)CC(=O)N1C [PP2532]
HRAS/KRAS (ratio of KD value with respect to GDP-bound HRAS wild-type protein to KD value with respect to KRAS) ([1]; class symbols): B (a compound having 3 or more and less than 10 is denoted as B)
NRAS/KRAS (ratio of KD value with respect to GDP-bound NRAS wild-type protein to KD value with respect to KRAS) ([2]; class symbols): A (a compound having 10 or more and less than 20 is denoted as A)

CC[C@H](C)[C@@H]1NC(=O)[C@H](CC(C)C)N(C)C(=O)C[C@@H](C(=O)N2CCOCC2)N(C)C(=O)[C@H](C2CCCC2)N(C)C(=O)C2(CCOCC2)NC(=O)[C@@H]2CCCN2C(=O)[C@H](CCc2cc(F)c(C(F)(F)F)c(F)c2)NC(=O)CN(C)C(=O)[C@H](Cc2ccc(C(F)(F)F)cc2)N2CCCCC[C@@H](C2=O)N(C)C(=O)CN(C)C1=O [PP0502]
HRAS/KRAS (ratio of KD value with respect to GDP-bound HRAS wild-type protein to KD value with respect to KRAS) ([1]; SPR): B (a compound having 3 or more and less than 10 is denoted as B)
NRAS/KRAS (ratio of KD value with respect to GDP-bound NRAS wild-type protein to KD value with respect to KRAS) ([2]; SPR): A (a compound having 10 or more and less than 20 is denoted as A)

CCO[C@@H]1C[C@H]2C(=O)NC3(CCC3)C(=O)N(C)[C@@H](C3CCCC3)C(=O)N(C)[C@H](C(=O)N3CCOCC3)CC(=O)N(C)[C@@H](CC3CCCC3)C(=O)N[C@@H]([C@@H](C)CC)C(=O)N(C)CC(=O)N(C)[C@H]3CCCCCN(C3=O)[C@@H](Cc3ccc(C(F)(F)F)cc3)C(=O)N(C)CC(=O)N[C@@H](CCc3cc(F)c(C(F)(F)F)c(F)c3)C(=O)N2C1 [PP0685]
HRAS/KRAS (ratio of KD value with respect to GDP-bound HRAS wild-type protein to KD value with respect to KRAS) ([1]; SPR): B (a compound having 3 or more and less than 10 is denoted as B)
NRAS/KRAS (ratio of KD value with respect to GDP-bound NRAS wild-type protein to KD value with respect to KRAS) ([2]; SPR): B (a compound having 3 or more and less than 10 is denoted as B)

CCC[C@H]1C(=O)N[C@@H]([C@@H](C)CC)C(=O)N(C)CC(=O)N(C)[C@H]2C/C=C\CCN(C2=O)[C@@H](Cc2ccc(C(F)(F)F)cc2)C(=O)N(C)CC(=O)N[C@@H](CCc2ccc(C(F)(F)F)c(Cl)c2)C(=O)N2CCCC[C@H]2C(=O)NC2(CC(C)(C)C2)C(=O)N(C)[C@@H](C(CC)CC)C(=O)N(C)[C@H](C(=O)N(C)C)CC(=O)N1C [PP2928]
HRAS/KRAS (ratio of KD value with respect to GDP-bound HRAS wild-type protein to KD value with respect to KRAS) ([1]; class symbols): A (a compound having 10 or more and less than 20 is denoted as A)
NRAS/KRAS (ratio of KD value with respect to GDP-bound NRAS wild-type protein to KD value with respect to KRAS) ([2]; class symbols): AA (a compound having 20 or more is denoted as AA)

CCO[C@@H]1C[C@H]2C(=O)NC3(CC(C)(C)C3)C(=O)N(C)[C@@H](C(CC)CC)C(=O)N(C)[C@H](C(=O)N(C)C)CC(=O)N(C)[C@@H](CC3CC3)C(=O)N[C@@H]([C@@H](C)CC)C(=O)N(C)CC(=O)N(C)[C@H]3C/C=C\CCN(C3=O)[C@@H](Cc3ccc(C)cc3)C(=O)N(C)CC(=O)N[C@@H](CCc3ccc(Cl)c(Cl)c3)C(=O)N2C1 [PP2182]
HRAS/KRAS (ratio of KD value with respect to HRAS to KD value with respect to KRAS) ([1]; SPR): A (a compound having 10 or more and less than 20 is denoted as A)
NRAS/KRAS (ratio of KD value with respect to NRAS to KD value with respect to KRAS) ([2]; SPR): AA (a compound having 20 or more is denoted as AA)

C#CC[C@H]1C(=O)N[C@@H]([C@@H](C)CC)C(=O)N(C)CC(=O)N(C)[C@H]2C/C=C\CCN(C2=O)[C@@H](Cc2ccc(C(F)(F)F)cc2)C(=O)N(C)CC(=O)N[C@@H](CCc2ccc(C(F)(F)F)c(OC)c2)C(=O)N2C[C@@H](C)C[C@H]2C(=O)NC2(CC(C)(C)C2)C(=O)N(C)[C@@H](C2CCCC2)C(=O)N(C)[C@H](C(=O)N(C)CCC)CC(=O)N1C [PP2057]
HRAS/KRAS (ratio of KD value with respect to HRAS to KD value with respect to KRAS) ([1]; SPR): A (a compound having 10 or more and less than 20 is denoted as A)
NRAS/KRAS (ratio of KD value with respect to NRAS to KD value with respect to KRAS) ([2]; SPR): A (a compound having 10 or more and less than 20 is denoted as A)

CC[C@H](C)[C@@H]1NC(=O)[C@H](CC(C)C)N(C)C(=O)C[C@@H](C(=O)N2CCOCC2)N(C)C(=O)[C@H](C2CCCC2)N(C)C(=O)C2(CCCC2)NC(=O)[C@@H]2CCCN2C(=O)[C@H](CCc2ccc(C(F)(F)F)c(Cl)c2)NC(=O)CN(C)C(=O)[C@H](Cc2ccc(C(F)(F)F)cc2)N(CC)C(=O)CN(C)C(=O)CN(C)C1=O [PP0023] ([NMeL]I[Sar][Sar][NEtPhe(4-CF3)][Sar][hPhe(3-Cl-4-CF3)]P[Ac5c][NMeGly(cPent)][NMeD]-Morpholide; lactam N-11)
HRAS/KRAS (ratio of KD for GDP-bound HRAS wild-type to KD for KRAS) ([1]; SPR): C (A compound having a KD ratio of 0.1 or more and less than 3 is denoted as C)
NRAS/KRAS (ratio of KD for GDP-bound NRAS wild-type to KD for KRAS) ([2]; SPR): B (a compound having 3 or more and less than 10 is denoted as B)

CCO[C@@H]1C[C@H]2C(=O)NC3(CCC3)C(=O)N(C)[C@@H](C3CCCC3)C(=O)N(C)[C@H](C(=O)N3CCOCC3)CC(=O)N(C)[C@@H](COC)C(=O)N[C@@H]([C@@H](C)CC)C(=O)N(C)CC(=O)N(C)[C@H]3CCCCCN(C3=O)[C@@H](Cc3ccc(C(F)(F)F)cc3)C(=O)N(C)CC(=O)N[C@@H](CCc3ccc(C)cc3)C(=O)N2C1 [PP0850]
HRAS/KRAS (ratio of KD value with respect to HRAS to KD value with respect to KRAS) ([1]; KD ratio, SPR): B (a compound having 3 or more and less than 10 is denoted as B)
NRAS/KRAS (ratio of KD value with respect to NRAS to KD value with respect to KRAS) ([2]; KD ratio, SPR): B (a compound having 3 or more and less than 10 is denoted as B)

CC[C@H](C)[C@@H]1NC(=O)[C@H](CC(C)C)N(C)C(=O)C[C@@H](C(=O)N2CCOCC2)N(C)C(=O)[C@H](C2CCCCC2)N(C)C(=O)C2(CCCC2)NC(=O)[C@@H]2CCCN2C(=O)[C@H](CCc2cc(F)c(C(F)(F)F)c(F)c2)NC(=O)CN(C)C(=O)[C@H](Cc2ccc(C(F)(F)F)cc2)N2CCCC[C@@H](C2=O)N(C)C(=O)CN(C)C1=O [PP0567]
HRAS/KRAS (ratio of KD value with respect to GDP-bound HRAS wild-type protein to KD value with respect to KRAS) ([1]; SPR): B (a compound having 3 or more and less than 10 is denoted as B)
NRAS/KRAS (ratio of KD value with respect to GDP-bound NRAS wild-type protein to KD value with respect to KRAS) ([2]; SPR): B (a compound having 3 or more and less than 10 is denoted as B)

CCOC[C@H]1C(=O)N[C@@H]([C@@H](C)CC)C(=O)N(C)CC(=O)N(C)[C@H]2C/C=C\CCN(C2=O)[C@@H](Cc2ccc(C)cc2)C(=O)N(C)CC(=O)N[C@@H](CCc2ccc(C(F)(F)F)c(OC)c2)C(=O)N2C[C@H](C)C[C@H]2C(=O)NC2(CC(C)(C)C2)C(=O)N(C)[C@@H](C2CCCC2)C(=O)N(C)[C@H](C(=O)N(C)C)CC(=O)N1C [PP2393]
HRAS/KRAS (ratio of KD value with respect to HRAS to KD value with respect to KRAS) ([1]; SPR): A (a compound having 10 or more and less than 20 is denoted as A)
NRAS/KRAS (ratio of KD value with respect to NRAS to KD value with respect to KRAS) ([2]; SPR): A (a compound having 10 or more and less than 20 is denoted as A)

CCCN1C(=O)CN(C)C(=O)CN(C)C(=O)[C@H]([C@@H](C)CC)NC(=O)[C@H](CC(C)C)N(C)C(=O)C[C@@H](C(=O)N2CCOCC2)NC(=O)[C@H](C2CCCC2)N(C)C(=O)C2(CCCC2)NC(=O)[C@@H]2CC(F)(F)CN2C(=O)[C@H](CCc2ccc(C(F)(F)F)c(Cl)c2)NC(=O)CN(C)C(=O)[C@@H]1Cc1ccc(C(F)(F)F)cc1 [PP0321] ([NMeL]I[Sar][Sar][NPrPhe(4-CF3)][Sar][hPhe(3-Cl-4-CF3)][Pro(4,4-F2)][Ac5c][NMeGly(cPent)]D-Morpholide; lactam N-11)
HRAS/KRAS (ratio of KD for GDP-bound HRAS wild-type to KD for KRAS) ([1]; SPR): B (a compound having 3 or more and less than 10 is denoted as B)
NRAS/KRAS (ratio of KD for GDP-bound NRAS wild-type to KD for KRAS) ([2]; SPR): B (a compound having 3 or more and less than 10 is denoted as B)
